Experimental data as given in ChEMBL document CHEMBL1129337, “Aristeromycin-5'-carboxaldehyde: a potent inhibitor of S-adenosyl-L-homocysteine hydrolase” (J Med Chem, 1996).

Key:
[1] = biological target: T1, Adenosylhomocysteinase (Homo sapiens, UniProt P23526)
Target sequence in this assay (P23526 2-432 limits assumed): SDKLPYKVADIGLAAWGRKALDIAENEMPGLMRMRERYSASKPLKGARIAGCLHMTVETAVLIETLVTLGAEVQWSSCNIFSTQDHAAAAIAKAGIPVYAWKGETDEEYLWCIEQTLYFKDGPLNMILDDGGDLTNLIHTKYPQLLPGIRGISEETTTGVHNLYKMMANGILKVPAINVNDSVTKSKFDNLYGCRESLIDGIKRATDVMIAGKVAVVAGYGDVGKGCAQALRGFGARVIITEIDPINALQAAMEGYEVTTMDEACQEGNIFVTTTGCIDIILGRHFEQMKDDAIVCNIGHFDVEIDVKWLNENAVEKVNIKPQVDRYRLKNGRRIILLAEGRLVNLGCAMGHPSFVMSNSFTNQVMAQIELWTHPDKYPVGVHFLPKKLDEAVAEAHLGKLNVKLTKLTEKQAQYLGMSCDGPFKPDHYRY
Description: Apparent inactivation rate constant (k2) for S-adenosyl-L-homocysteine hydrolase

[2] = biological target: T1, Adenosylhomocysteinase; assay: Binding affinity towards purified recombinant human placental S-adenosyl-L-homocysteine hydrolase
Target sequence in this assay (P23526 whole entry): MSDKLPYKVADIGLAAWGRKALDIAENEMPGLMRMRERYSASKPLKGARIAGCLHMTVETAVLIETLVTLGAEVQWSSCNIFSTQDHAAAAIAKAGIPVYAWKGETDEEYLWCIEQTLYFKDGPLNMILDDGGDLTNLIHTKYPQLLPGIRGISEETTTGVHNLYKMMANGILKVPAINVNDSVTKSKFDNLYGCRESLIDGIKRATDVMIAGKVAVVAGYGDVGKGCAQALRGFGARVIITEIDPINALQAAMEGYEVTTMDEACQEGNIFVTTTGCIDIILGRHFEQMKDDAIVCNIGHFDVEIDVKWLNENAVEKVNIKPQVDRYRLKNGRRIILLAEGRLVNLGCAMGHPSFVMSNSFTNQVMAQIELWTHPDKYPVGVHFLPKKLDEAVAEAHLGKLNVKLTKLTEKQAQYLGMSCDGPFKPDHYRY

k2 [1]	Ki [2]	Compound
0.22 min⁻¹	0.043 µM	Nc1ncnc2c1ncn2[C@@H]1O[C@H](C=O)[C@@H](O)[C@H]1O
0.65 min⁻¹	0.039 µM	Nc1ncnc2c1ncn2[C@@H]1O[C@@H](C=O)[C@@H](O)[C@H]1O
1.2 min⁻¹	0.273 µM	Nc1ncnc2c1ncn2[C@@H]1C[C@@H](C=O)[C@@H](O)[C@H]1O
0.37 min⁻¹	4.5 µM	Nc1ncnc2c1ncn2[C@@H]1C[C@H](C=O)[C@@H](O)[C@H]1O
